The record followed here is patent publication US12157738B2, “Macrocyclic inhibitors of ALK, TRKA, TRKB, and ROS1” (DANA-FARBER CANCER INSTITUTE, INC., priority 2018, dated 2024).

By pIC50 is commonly meant the IC50 on a negative log10 scale, so that one unit is a factor of ten.

One assay addresses T1, ALK (Homo sapiens, UniProt Q9UM73).
T1 construct: similar enzymatic potency was observed against full length ALK and ALK mutants; purchased Invitrogen
Description: Invitrogen Z'-lyte or LanthaScreen kinase IC50 assay. It counts as biochemical. From the text:
(§1) The IC50 values were generated from Invitrogen™'s Z'-lytet™ or LanthaScreen™ assays.
For orientation: In TR-FRET formats the signal depends on donor and acceptor labels being close together.

The next assay addresses T2, ALK L1196M (Homo sapiens, UniProt Q9UM73, L1196M).
T2 construct: purchased Invitrogen
Described as above. Format: biochemical.
Description: as §1

For the next assay, the target named is T3, ROS1 (Homo sapiens, UniProt P08922).
T3 construct: purchased Invitrogen
T3 sequence (P08922 28-2347): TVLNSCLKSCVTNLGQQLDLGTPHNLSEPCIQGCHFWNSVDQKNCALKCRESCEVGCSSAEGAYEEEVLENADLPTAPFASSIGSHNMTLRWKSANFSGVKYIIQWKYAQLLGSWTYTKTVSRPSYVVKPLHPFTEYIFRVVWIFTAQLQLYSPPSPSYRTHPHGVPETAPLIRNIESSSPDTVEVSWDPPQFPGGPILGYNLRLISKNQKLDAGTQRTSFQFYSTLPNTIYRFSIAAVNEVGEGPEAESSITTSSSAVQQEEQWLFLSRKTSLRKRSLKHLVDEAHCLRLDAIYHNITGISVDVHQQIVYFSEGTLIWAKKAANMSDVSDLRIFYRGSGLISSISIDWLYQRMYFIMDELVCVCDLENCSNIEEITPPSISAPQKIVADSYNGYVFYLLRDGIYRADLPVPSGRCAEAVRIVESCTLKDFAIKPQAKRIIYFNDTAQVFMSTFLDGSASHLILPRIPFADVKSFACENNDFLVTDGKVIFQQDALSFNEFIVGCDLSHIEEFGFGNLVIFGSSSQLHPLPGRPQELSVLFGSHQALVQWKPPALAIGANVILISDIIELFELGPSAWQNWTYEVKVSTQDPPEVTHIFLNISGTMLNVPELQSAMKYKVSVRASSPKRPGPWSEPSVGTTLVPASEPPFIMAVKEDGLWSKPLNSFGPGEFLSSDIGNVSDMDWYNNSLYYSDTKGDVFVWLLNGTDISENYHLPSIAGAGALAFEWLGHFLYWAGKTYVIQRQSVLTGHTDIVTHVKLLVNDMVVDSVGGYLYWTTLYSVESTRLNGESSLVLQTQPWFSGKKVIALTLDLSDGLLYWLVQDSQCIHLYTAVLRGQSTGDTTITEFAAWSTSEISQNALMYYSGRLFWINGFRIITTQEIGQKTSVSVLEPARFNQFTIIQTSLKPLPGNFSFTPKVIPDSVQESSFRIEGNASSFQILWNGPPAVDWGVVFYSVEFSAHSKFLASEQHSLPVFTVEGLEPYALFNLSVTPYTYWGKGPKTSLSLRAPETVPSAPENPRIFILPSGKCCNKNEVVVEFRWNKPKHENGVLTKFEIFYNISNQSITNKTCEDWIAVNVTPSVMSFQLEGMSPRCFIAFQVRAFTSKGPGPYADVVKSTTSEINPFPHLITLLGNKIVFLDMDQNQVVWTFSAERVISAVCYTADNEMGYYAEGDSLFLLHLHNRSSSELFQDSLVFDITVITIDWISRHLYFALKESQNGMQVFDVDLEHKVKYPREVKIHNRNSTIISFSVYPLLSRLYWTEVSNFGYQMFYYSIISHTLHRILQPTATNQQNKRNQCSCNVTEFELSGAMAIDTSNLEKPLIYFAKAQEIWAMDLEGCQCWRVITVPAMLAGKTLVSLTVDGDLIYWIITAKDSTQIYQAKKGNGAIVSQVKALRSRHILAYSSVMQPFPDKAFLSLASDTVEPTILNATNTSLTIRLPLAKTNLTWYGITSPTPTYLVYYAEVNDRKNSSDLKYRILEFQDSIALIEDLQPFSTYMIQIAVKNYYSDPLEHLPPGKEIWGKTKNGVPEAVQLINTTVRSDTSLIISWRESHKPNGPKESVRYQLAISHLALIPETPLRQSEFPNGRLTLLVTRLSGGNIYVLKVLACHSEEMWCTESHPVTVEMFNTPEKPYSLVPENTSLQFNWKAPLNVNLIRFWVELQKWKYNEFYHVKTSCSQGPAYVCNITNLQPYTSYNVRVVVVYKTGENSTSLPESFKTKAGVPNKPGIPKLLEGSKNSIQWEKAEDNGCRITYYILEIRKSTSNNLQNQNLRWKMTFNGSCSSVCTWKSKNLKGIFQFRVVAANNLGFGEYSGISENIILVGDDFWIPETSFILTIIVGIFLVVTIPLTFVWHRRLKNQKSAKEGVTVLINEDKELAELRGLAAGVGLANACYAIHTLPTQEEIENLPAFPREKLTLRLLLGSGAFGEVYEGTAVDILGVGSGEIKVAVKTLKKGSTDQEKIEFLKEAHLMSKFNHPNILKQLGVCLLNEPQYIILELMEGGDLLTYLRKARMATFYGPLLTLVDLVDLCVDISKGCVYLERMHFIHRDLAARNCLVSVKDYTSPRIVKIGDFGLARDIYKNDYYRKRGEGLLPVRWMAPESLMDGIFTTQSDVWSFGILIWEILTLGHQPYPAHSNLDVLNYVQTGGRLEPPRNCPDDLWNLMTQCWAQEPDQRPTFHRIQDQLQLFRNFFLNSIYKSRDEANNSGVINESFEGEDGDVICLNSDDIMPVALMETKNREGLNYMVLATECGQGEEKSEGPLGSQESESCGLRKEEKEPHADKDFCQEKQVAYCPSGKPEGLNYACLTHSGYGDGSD
The description is as above. It counts as biochemical.
Description: as §1

A further assay has as its target T4, TRK1 (Homo sapiens, UniProt P04629).
T4 construct: purchased Invitrogen
Described as above. Format: biochemical.
Description: as §1

Another assay has as its target T5, TRK2 (Homo sapiens, UniProt Q16620).
T5 construct: purchased Invitrogen
The description is as above. Format: biochemical.
Description: as §1

For a further assay, the target named is T6, TRK3 (Homo sapiens, UniProt Q16288).
T6 construct: purchased Invitrogen
T6 sequence (Q16288 32-839): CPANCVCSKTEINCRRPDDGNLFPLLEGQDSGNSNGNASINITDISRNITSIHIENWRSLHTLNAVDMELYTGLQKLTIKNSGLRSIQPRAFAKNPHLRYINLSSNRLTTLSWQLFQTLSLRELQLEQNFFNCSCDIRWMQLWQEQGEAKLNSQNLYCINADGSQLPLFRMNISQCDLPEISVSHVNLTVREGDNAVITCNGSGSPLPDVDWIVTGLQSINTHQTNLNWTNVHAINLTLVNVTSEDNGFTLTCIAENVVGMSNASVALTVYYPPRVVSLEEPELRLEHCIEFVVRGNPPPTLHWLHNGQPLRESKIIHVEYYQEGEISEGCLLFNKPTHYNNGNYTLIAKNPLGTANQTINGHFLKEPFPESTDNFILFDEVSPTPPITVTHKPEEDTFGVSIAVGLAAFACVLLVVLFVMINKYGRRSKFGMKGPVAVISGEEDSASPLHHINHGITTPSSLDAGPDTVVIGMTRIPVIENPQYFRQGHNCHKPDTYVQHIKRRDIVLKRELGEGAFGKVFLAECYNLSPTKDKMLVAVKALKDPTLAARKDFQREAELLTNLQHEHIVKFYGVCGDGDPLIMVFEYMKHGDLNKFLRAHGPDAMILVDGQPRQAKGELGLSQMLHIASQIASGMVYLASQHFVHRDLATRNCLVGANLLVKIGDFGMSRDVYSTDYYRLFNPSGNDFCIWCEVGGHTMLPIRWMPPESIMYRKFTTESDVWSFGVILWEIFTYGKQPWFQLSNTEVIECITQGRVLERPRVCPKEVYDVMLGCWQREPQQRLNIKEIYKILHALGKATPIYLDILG
The assay is described as above. Format: biochemical.
Description: as §1

In assay [1] the target is T7, Ba/F3 EML4-ALK C1156Y cells (Homo sapiens, UniProt Q9UM73, C1156Y).
T7 construct: expressed in transfected cells; host or cells: Ba/F3; the other entry of the earlier key: EML4 (Q9HC35, Echinoderm microtubule-associated protein-like 4)
As to the kind of experiment: Cell viability assay (CellTiter-Glo, 72 hr). Format: cell-based. As for the experimental part: (§2) Parental Ba/F3 cells were cultured with an additional 1 ng/mL recombinant mouse IL-3 (ProSpec). […] Cell viability was evaluated using the CellTiter-Glo® Luminescent Cell Viability Assay (Promega) following the manufacturer's standards. […] Anti-proliferative best fit IC50 values were calculated by Graphpad Prism 7 software.

Assay [2] has as its target T8, Ba/F3 EML4-ALK G1202R cells (Homo sapiens, UniProt Q9UM73, G1202R).
T8 construct: expressed in transfected cells; host or cells: Ba/F3; the other entry of the earlier key: EML4 (Q9HC35, Echinoderm microtubule-associated protein-like 4)
As to the kind of experiment: Cell viability assay (CellTiter-Glo, 72 hr). Format: cell-based. The method, then:
as §2
(ATP-based viability assays read luminescence as a measure of living cells.)

Assay [3] has as its target T9, Ba/F3 EML4-ALK L1196M cells (Homo sapiens, UniProt Q9UM73, L1196M).
T9 construct: expressed in transfected cells; host or cells: Ba/F3; the other entry of the earlier key: EML4 (Q9HC35, Echinoderm microtubule-associated protein-like 4)
Description: Cell viability assay (CellTiter-Glo, 72 hr). It counts as cell-based. As for the experimental part:
as §2

The target of another assay is T10, Ba/F3 EML4-ALK cells (Homo sapiens, UniProt Q9UM73).
T10 construct: expressed in transfected cells; host or cells: Ba/F3; the other entry of the earlier key: EML4 (Q9HC35, Echinoderm microtubule-associated protein-like 4)
As to the kind of experiment: Cell viability assay (CellTiter-Glo, 72 hr). Format: cell-based. The method, then:
as §2

Another assay addresses T11, CD74-NTRK1 Ba/F3 cells (Homo sapiens, UniProt P04629).
T11 construct: expressed in transfected cells; host or cells: Ba/F3; the other entry of the earlier key: CD74 (P04233, HLA class II histocompatibility antigen gamma chain)
As to the kind of experiment: Cell viability assay (CellTiter-Glo, 72 hr). It counts as cell-based. The settings on record: for pIC50: 72 hr. The method, then: as §2

A further assay has as its system Parental WT Ba/F3 cells. As to the kind of experiment: Cell viability assay (CellTiter-Glo, 72 hr). It counts as cell-based. The note with it: for pIC50: Mus musculus, BaF3, 72 hr. The method, then:
(§3) Ba/F3 cell lines were cultured in RPMI-1640 media containing L-glutamine, supplemented with 10% fetal bovine serum (FBS) and 1% penicillin/streptomycin. Parental Ba/F3 cells were cultured with an additional 1 ng/mL recombinant mouse IL-3 (ProSpec). Mycoplasma testing was performed on a monthly basis and all lines were negative. Cell viability was evaluated using the CellTiter-Glo® Luminescent Cell Viability Assay (Promega) following the manufacturer's standards. 12-point dose titrations were tested in triplicate from 10000 nM to 0.056 nM over 72 hr. Anti-proliferative best fit IC50 values were calculated by Graphpad Prism 7 software.
The experimental protocol was as in Example 11.

Assay [4] has as its system tel-TRK fusion Ba/F3 cell lines. Description: IC50 in TEL-TRK Ba/F3 cells. It counts as cell-based. The note with it: all 3 tel-TRK fusion Ba/F3 cell lines; FIG. 5. From the text: The IC50 values were generated using ACD/Labs GraphPad Prism (version 7).
In assay [5] the test system is ALK wild type, ALK mutants, TRKA, TRKB, TRKC and ROS1. As to the kind of experiment: AMBIT profile, DiscoverX KINOMEscan Assay platform. It counts as binding. The note with it: for Ambit profile potency and selectivity: Example 10, FIG. 7A and 7B. From the text: The AMBIT data were generated using DiscoverX KINOMEscan® Assay platform.
The experimental protocol was as in Example 9.

For assay [6], the system named is Ba/F3 cell lines expressing EML4-ALK and EML4-ALK with secondary mutations. Description: Anti-proliferation assay in EML4-ALK Ba/F3 cell lines. Format: cell-based. The method, then: as §3

SMILES strings stand for the structures. pIC50: −log10 of the molar value.

T5 sequence (Q16620 32-822): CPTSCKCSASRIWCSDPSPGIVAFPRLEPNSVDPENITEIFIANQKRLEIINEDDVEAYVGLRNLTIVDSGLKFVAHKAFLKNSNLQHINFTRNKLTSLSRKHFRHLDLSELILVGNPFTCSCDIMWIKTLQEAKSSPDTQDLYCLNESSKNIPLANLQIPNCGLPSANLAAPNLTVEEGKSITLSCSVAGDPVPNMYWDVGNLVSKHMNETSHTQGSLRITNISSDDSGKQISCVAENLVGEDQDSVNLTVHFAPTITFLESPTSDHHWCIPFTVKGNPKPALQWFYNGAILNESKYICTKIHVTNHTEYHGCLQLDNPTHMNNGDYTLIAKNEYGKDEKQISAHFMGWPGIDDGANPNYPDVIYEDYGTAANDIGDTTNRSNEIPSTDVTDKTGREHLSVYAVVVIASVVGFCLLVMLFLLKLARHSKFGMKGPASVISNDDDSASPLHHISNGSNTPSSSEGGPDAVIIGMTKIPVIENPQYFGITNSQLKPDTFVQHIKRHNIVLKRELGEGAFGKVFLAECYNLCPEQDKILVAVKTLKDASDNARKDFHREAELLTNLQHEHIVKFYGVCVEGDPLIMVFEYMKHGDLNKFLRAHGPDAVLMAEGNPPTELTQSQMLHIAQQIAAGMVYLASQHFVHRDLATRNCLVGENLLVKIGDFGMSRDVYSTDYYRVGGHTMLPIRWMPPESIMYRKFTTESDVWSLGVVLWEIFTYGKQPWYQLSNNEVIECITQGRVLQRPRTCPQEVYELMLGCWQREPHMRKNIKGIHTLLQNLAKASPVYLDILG
T11 sequence (P04629 510-796 limits assumed): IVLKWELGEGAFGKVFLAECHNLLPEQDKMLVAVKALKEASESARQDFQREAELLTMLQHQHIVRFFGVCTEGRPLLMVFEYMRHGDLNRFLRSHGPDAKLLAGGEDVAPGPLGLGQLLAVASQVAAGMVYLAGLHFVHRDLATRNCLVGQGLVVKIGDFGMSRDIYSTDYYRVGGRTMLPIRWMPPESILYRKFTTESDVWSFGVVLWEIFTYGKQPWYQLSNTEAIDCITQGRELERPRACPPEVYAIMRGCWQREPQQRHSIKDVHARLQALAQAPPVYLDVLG
T4 sequence (P04629 33-796): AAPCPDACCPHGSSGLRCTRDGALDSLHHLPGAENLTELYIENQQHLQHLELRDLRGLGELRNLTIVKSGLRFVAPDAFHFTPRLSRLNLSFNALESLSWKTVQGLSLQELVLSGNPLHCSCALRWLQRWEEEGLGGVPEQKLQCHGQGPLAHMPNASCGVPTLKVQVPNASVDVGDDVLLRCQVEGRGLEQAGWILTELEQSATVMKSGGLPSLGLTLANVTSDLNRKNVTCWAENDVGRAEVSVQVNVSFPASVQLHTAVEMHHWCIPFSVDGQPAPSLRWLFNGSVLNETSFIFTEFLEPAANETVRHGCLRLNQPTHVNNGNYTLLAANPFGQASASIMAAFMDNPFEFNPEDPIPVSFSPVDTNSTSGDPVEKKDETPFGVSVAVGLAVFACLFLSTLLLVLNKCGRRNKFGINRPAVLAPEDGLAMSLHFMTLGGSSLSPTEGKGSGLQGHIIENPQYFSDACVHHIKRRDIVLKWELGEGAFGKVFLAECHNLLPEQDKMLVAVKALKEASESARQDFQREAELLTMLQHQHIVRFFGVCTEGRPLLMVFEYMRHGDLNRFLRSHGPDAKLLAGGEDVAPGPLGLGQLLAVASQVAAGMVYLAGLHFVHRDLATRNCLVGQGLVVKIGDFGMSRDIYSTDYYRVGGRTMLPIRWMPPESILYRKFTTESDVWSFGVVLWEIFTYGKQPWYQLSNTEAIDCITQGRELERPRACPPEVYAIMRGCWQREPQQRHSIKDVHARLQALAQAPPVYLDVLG

`CN1Cc2nn(C)cc2-c2cnc(N)c(c2)N2CCC[C@@H]2c2cc(F)ccc2C1=O` [Compound I-1a, (R)-26-amino-45-fluoro-11,6-dimethyl-11H-6-aza-2(3,5)-pyridina-1(4,3)-pyrazola-3(1,2)-pyrrolidina-4(1,3)-benzenacycloheptaphan-5-one]: the pIC50 at ALK was 7.92; against ALK L1196M, 8.22; against ROS1 it was 8.89; against TRK1, 8.52; on TRK2 it was 9.30; at TRK3, 9.15. Further, the pIC50 in assay [1] is 6.82; in assay [2] it was 5.91; in assay [3], 6.84; against Ba/F3 EML4-ALK cells it was 7.63; on CD74-NTRK1 Ba/F3 cells it was 9.88; with Parental WT Ba/F3 cells it was 4.72. Besides, the “activity relative to entrectinib in CD74-NTRK1 expressing Ba/F3 cells” value at CD74-NTRK1 Ba/F3 cells (in words) is given as “entrectinib like activity”. Besides, the “non-specific activity in parental Ba/F3 cells, compared in words” value in the assay on Parental WT Ba/F3 cells is listed as “less non-specific activity than entrectinib”. In addition, the “potency (IC50) relative to entrectinib in tel-TRK fusion Ba/F3 cell lines” value in [4] is reported as “more potent than entrectinib”. For the same compound, the “Ambit profile selectivity (percent activity remaining)” value in assay [5] (Example 9, FIG. 6) is “quite selective toward ALK wild type, ALK mutants as well as TRKA, TRKB, TRKC and ROS1”. Moreover, the “Ambit profile potency and selectivity” value in assay [5] is “very potent and selective for ALK, TRKA, TRKB, and TRKC”. Also, in assay [6] (Example 11, FIG. 1), the “anti-proliferative activity relative to lorlatinib” value is recorded as “lower activity”. Also, the “activity relative to lorlatinib and JH-XIII-157-2” value in assay [6] (Example 12, FIG. 2A-2D, Tables 2-5) is “lower activity”.

`COc1c2c(nn1C)CN(C)C(=O)c1ccc(F)cc1[C@H]1CCCN1c1cc-2cnc1N` [Compound I-1b, (R)-26-amino-45-fluoro-15-methoxy-11,6-dimethyl-11H-6-aza-2(3,5)-pyridina-1(4,3)-pyrazola-3(1,2)-pyrrolidina-4(1,3)-benzenacycloheptaphan-5-one]: the pIC50 is 8.05 at ALK; 7.70 on ALK L1196M; 9.05 at ROS1; 8.40 on TRK1; 9.05 on TRK2; 9.15 against TRK3. In assay [5], the “Ambit profile potency and selectivity” value was “very potent and selective for ALK, TRKA, TRKB, and TRKC”.

`Cn1cc2c(n1)CN(C1CC1)C(=O)c1ccc(F)cc1[C@H]1CCCN1c1cc-2cnc1N` [Compound I-1e, (R)-2^6-amino-6-cyclopropyl-4^5-fluoro-1^1-methyl-1^1H-6-aza-2(3,5)-pyridina-1(4,3)-pyrazola-3(1,2)-pyrrolidina-4(1,3)-benzenacycloheptaphan-5-one]: the pIC50 on ALK is 8.22; on ALK L1196M it was 8.22; on ROS1, 9.15; at TRK1, 8.70; at TRK2, 9.15; against TRK3 it was 9.15.

With `CN1Cc2nn(C)c(C#N)c2-c2cnc(N)c(c2)N2CCC[C@@H]2c2cc(F)ccc2C1=O` [Compound I-1d, (R)-2^6-amino-4^5-fluoro-1,6-dimethyl-5-oxo-1^1H-6-aza-2(3,5)-pyridina-1(4,3)-pyrazola-3(1,2)-pyrrolidina-4(1,3)-benzenacycloheptaphane-15-carbonitrile], the pIC50 was 8.15 at ALK; 8.52 against ALK L1196M; 9.00 against ROS1; 8.22 at TRK1; 8.30 at TRK2; 8.70 on TRK3. In assay [5], the “Ambit profile potency and selectivity” value was “very potent and selective for ALK, TRKA, TRKB, and TRKC”.

As to `CN1CCN(c2ccc(C(=O)Nc3n[nH]c4ccc(Cc5cc(F)cc(F)c5)cc34)c(NC3CCOCC3)c2)CC1` [Entrectinib], in the assay with Parental WT Ba/F3 cells, the pIC50 is 5.69 and the “non-specific activity in parental Ba/F3 cells, compared in words” value was “more active than compound I-1a”.

Take `C[C@H]1Oc2cc(cnc2N)-c2c(nn(C)c2C#N)CN(C)C(=O)c2ccc(F)cc21` [Lorlatinib, reference compound]: the pIC50 is 7.17 against CD74-NTRK1 Ba/F3 cells and 4.72 in the assay on Parental WT Ba/F3 cells.

Turning to `Cc1c2c(nn1C)CN(C)C(=O)c1ccc(F)cc1[C@H]1CCCN1c1cc-2cnc1N` [Compound I-1c, (R)-2^6-amino-4^5-fluoro-1^1,1^5,6-trimethyl-1^1H-6-aza-2(3,5)-pyridina-1(4,3)-pyrazola-3(1,2)-pyrrolidina-4(1,3)-benzenacycloheptaphan-5-one], the pIC50 against ALK was 8.30; on ALK L1196M it was 8.52; against ROS1 it was 9.22; against TRK1, 9.00; on TRK2, above 9.30; against TRK3, 9.30. In assay [5], the “Ambit profile potency and selectivity” value was “very potent and selective for ALK, TRKA, TRKB, and TRKC”.
